How the values were obtained:
[1] = tested on: Escherichia coli; test: Inhibition of fenton reaction-induced pBR322 supercoiled DNA damage; type: functional
[2] = tested on: Escherichia coli; test: Inhibition of fenton reaction-induced pBR322 supercoiled DNA damage at 1 mM; type: functional

For C/C(=C/CC[C@@H](C)[C@H]1CC[C@@]2(C)C3=CC[C@H]4C(C)(C)C(=O)CC[C@]4(C)C3=C[C@@H](O[C@@H]3O[C@H](CO)[C@@H](O)[C@H](O)[C@H]3O)[C@]12C)C(=O)O, the Activity [1] was “Dose-dependent effect”.

C/C(=C/CC[C@@H](C)[C@H]1CC[C@@]2(C)C3=CC[C@H]4C(C)(C)[C@H](O)CC[C@]4(C)C3=C[C@@H](O[C@@H]3O[C@H](CO)[C@@H](O)[C@H](O)[C@H]3O)[C@]12C)C(=O)O was tested, and the Activity [1] was “Dose-dependent effect”.

With C/C(=C/CC[C@@H](C)[C@H]1CC[C@@]2(C)C3=C(C[C@@H](O[C@@H]4O[C@H](CO)[C@@H](O)[C@H](O)[C@H]4O)[C@]12C)[C@@]1(C)CC[C@@H](O)C(C)(C)[C@@H]1CC3=O)C(=O)O the inhibition [2] was 90% and the Activity [1] was “Dose-dependent effect”.
